Each structure is given as a SMILES string.

One data set has as its system P-gp. The data set is described as follows: P-gp expression levels in small intestine by western blot analysis. The settings on record: mouse small intestine, intragastric, seven days; for P-gp expression compared with negative control: normalized to Na+-K+-ATPase. Type of data set: in vivo, ICR mice. On the procedure: Healthy male ICR mice (18-22 g of body weight) were purchased from SPF Animal Centre of […] Medical University ([…], China). […] The drugs were administrated intragastrically for seven consecutive days. Membrane proteins were harvested by […] Membrane and Plasma Protein Purification Kit ([…], Nanjing, China), and the protein concentrations were determined using KeyGEN BCA Protein Quantitation Assay kit ([…], Nanjing, China). An equal quantity of protein (48 μg) from membrane protein was resolved using 7.5% SDS-PAGE gel and subsequently transferred onto nitrocellulose membranes (Bio-Trace, Auckland, New Zealand). […] Antibodies were both purchased from Abcam (Cambridge, United Kingdom). The membranes were incubated with horseradish peroxidase-conjugated AffiniPure Goat Anti-Rabbit IgG (ZSGB-BIO, Beijing, China) for 1 h and signals were observed using SuperSignal West Pico (Thermo Scientific, Waltham, MA). Western blotting bands intensity was quantified by densitometric analysis using Image J version 2 × (NIH Image Software, […]).
(A western blot detects proteins with antibodies after separation by electrophoresis.)

For data set [1], the system named is ABC transporter coupling ATPase. The data set is described as follows: ABC transporter-related ATPase activity assay on small intestine membrane proteins. As to conditions: mouse small intestine, intragastric, seven days, p < 0.05. Type of data set: in vivo, mice. An excerpt:
Healthy male ICR mice (18-22 g of body weight) were purchased from SPF Animal Centre of […] Medical University ([…], China). […] The drugs were administrated intragastrically for seven consecutive days.

The next data set has as its system Plasmodium berghei. Set-up: method as in Wei et al. [2015]. As to conditions: ref Wei et al. [2015]; cited from earlier work.
For data set [2] the following is noted: ref Wei et al. [2015]; cited from earlier work.
Another data set concerns rat CYP3A. The settings on record: ref Wei et al. [2015]; cited from earlier work.
In another data set the test system is MDR1 mRNA. As to the kind of experiment: MDR1 expression in small intestine determined by RT-qPCR. The settings on record: mouse small intestine; intragastric, seven days; verapamil 40 mg/kg, ART-verapamil 1:1, ART-CHR all ratios, CHR alone 80 mg/kg; p < 0.01. In general terms: Quantitative PCR measures a nucleic acid by following its amplification.

Procedure for MDR1 mRNA: All animals were housed in polycarbonate cages and acclimated in an environmentally controlled room (23 ± 2 °C, with adequate ventilation and a 12 h light/dark cycle) prior to use. All animals were provided with standard laboratory food and water before and during the experiments. […] The drugs were administrated intragastrically for seven consecutive days.
The mice were euthanized by cervical vertebra dislocation. Small intestines were harvested and cleaned using normal saline at least three times. Total RNA was extracted from the mouse small intestine using E.Z.N.A.^TM Total RNA Kit (OMEGA Bio-Tek, Norcross, GA), in accordance with the instructions of the manufacturer. RNA concentrations were measured with a microplate spectrophotometer (Bio-RAD, Hercules, CA) at 260 nm. RNA quality was evaluated using electrophoresis in 1% agarose gels. Total RNA (3 μg) was reverse transcribed into first-strand complementary DNA (cDNA) using Thermo Scientific RevertAid First Strand cDNA Synthesis Kit (Thermo Scientific, Waltham, MA). Each cDNA sample (1 μL) was amplified with 12 μL Thermo Scientific Maxima SYBR Green qPCR Master Mix (2×). ROX Solution provided (Thermo Scientific, Waltham, MA) and 1 μmol of each primer. […]

For the compound `C[C@@H]1CC[C@H]2[C@@H](C)C(=O)O[C@@H]3O[C@@]4(C)CC[C@@H]1[C@]32OO4` [ART, artemisinin, reference compound], in the data set with P-gp, the “P-gp expression compared with negative control” value is listed as “up-regulated”. Besides, the “ATPase activity versus the vehicle” value in data set [1] (ART 40 mg/kg, verapamil 40 mg/kg) was “remarkably decreased”.

Consider `COc1cc(-c2oc3cc(OC)c(OC)c(O)c3c(=O)c2OC)ccc1O` [CHR, Chrysosplenetin], for which the “P-gp expression levels compared with ART alone” value with P-gp (ART-verapamil (1:1), ART-CHR (1:0.1, 1:1, 1:2, 1:4), CHR alone, p < 0.05 and p < 0.01) is “significantly decreased”. The “P-gp expression compared with negative control” value in the data set with P-gp is “No significant difference”. Besides, in data set [1] (ART-CHR 1:4 (40:160 mg/kg), CHR alone 80 mg/kg), the “ATPase activity compared with ART alone” value is “slight increase”. In the data set with Plasmodium berghei, the “effect of CHR on anti-malarial efficacy of ART” value is given as “significantly increased”. In data set [2], the “effect of CHR on rat plasma concentration of ART” value is “significantly increased”. For the same compound, the “manner of inhibition of rat CYP3A” value in the data set with rat CYP3A is listed as “uncompetitive”. For the same compound, the “MDR1 mRNA expression compared with ART alone” value in the data set on MDR1 mRNA is “reversed to normal levels”.

Source of the values: PMC6130654 (Pharmaceutical Biology, 2016).
